In patent US6809112B2, “Method of treating sexual disturbances” (priority 1999, dated 2004):

How the values were obtained:
[1] = test system: patient with Female Orgasmic Disorder; assay: Treatment of Female Orgasmic Disorder (Examples D, L); type: in vivo, human; conditions: 1 mg/dose about 0.5 hr before sexual activity; examined after two months; patient report
Excerpt: A 50 kg, patient who married three months before presenting for treatment. […] They were not sexually active prior to marriage. They report that their spouse had multiple premarital partners and that they report all their past partners had orgasms. The patient is upset by their inability to have orgasms and feels they are an poor spouse. On questioning they report that they are “too fat” although their weight is appropriate for their height. […] They currently take no prescription drugs other than low dose birth control pills. […] The patient is diagnosed as having Female Orgasmic Disorder that is situational due to psychological factors (Diagnostic and Statistical Manual of Mental Disorders, Fourth Edition, 1994). (5R)-(methylamino)-5,6-dihydro-4H-imidazo[4,5,1-ij]quinolin-2(1H)-one (Z)-2-butenedioate (1:1) is prescribed at 1 mg/dose to be taken about 0.5 hr before the patient intends to engage in sexual activity. The patient is instructed that they may use the drug on a daily basis, if this is the intended frequency of sexual activity. The patient is examined after two months. They report that they use the drug prior to intercourse. […] It is recommended that the patient continue to use the drug for an additional six months, then stop taking the drug for a period of two weeks to determine whether they might now be able to have orgasms in the absence of drug therapy.

[2] = test system: patient with Male Erectile Disorder; assay: Treatment of Male Erectile Disorder (Examples C, K); type: in vivo, human; conditions: 3 mg/dose 0.5 hr before sexual activity; examined after one month; patient report
Excerpt: A 75 kg, patient has been married for 20 years. They present complaining that for the past six months they have had difficulty maintaining an erection until completion of sexual intercourse. They develop an adequate erection at the beginning of sexual activity but detumescence occurs when they attempt penetration. Their spouse is their only current sexual partner. They report that their spouse is patient and understanding of their problem but that they are embarrassed, feels that they are a failure, and is growing progressively more angry and sad about their inability to maintain an erection. They masturbate approximately twice each month. During masturbation, they are usually able to maintain an erection until they ejaculate. […] The only remarkable findings were a supine diastolic blood pressure 94 mm mercury and a total plasma cholesterol level of 230 mg/dl. They were instructed to follow the American Heart Association dietary recommendations and to reduce their body weight by 5 kg. They currently take no prescription drugs. […] The patient is diagnosed as having Male Erectile Disorder that is acquired and situational. The etiology is most likely due to psychological factors, although combined factors, e.g., mild hypertension or atherosclerosis, may contribute (Diagnostic and Statistical Manual of Mental Disorders, Fourth Edition, 1994). (5R)-(methylamino)-5,6-dihydro-4H-imidazo[4,5,1-ij]quinolin-2(1H)-one (Z)-2-butenedioate (1:1) is prescribed at 3 mg/dose to be taken 0.5 hr before the patient intends to engage in sexual activity. The patient is instructed that they may use the drug on a daily basis, if this is the intended frequency of sexual activity. The patient is examined after one month. They report that they use the drug prior to intercourse. […] The patient is instructed to continue using the drug.

[3] = test system: patient with Male Orgasmic Disorder; assay: Treatment of Male Orgasmic Disorder (Examples E, M); type: in vivo, human; conditions: 3 mg/dose 0.5-1 hr before sexual activity; examined after one month; patient report
Excerpt: A 80 kg, person has been married for 15 years. They present complaining that they have begun to have difficulty achieving an orgasm during vaginal intercourse with their spouse. On most occasions they are unable to ejaculate during sexual intercourse. Infrequently, they are able to ejaculate during sexual, but only after very prolonged vaginal intercourse. […] Their further reports that their spouse finds the prolonged intercourse that they require to ejaculate uncomfortable and has begun avoiding sexual relations. They report that they ejaculate normally when they masturbate. […] They currently take no prescription drugs. […] The patient is diagnosed as having Male Orgasmic Disorder that is acquired and situational due to psychological factors (Diagnostic and Statistical Manual of Mental Disorders, Fourth Edition, 1994). (5R)-(methylamino) -5,6-dihydro-4H-imidazo[4,5,1-ij]quinolin-2(1H)-one (Z)-2-butenedioate (1:1) is prescribed at 3 mg/dose to be taken 0.5-1 hr before the patient intends to engage in sexual activity. The patient is instructed that they may use the drug on a daily basis, if this is the intended frequency of sexual activity. The patient is examined after one month. […] The patient is instructed to continue using the drug.

[4] = test system: patient with erectile dysfunction and hypoactive sexual desire disorder; assay: Treatment of patient with erectile dysfunction and Hypoactive Sexual Desire Disorder, combination with sildenafil (Examples H, P); type: in vivo, human; conditions: 3 mg/dose in combination with sildenafil (VIAGRA Tablets) 50 mg/dose, orally about 0.5 hr before sexual activity, 2-3 times per week; after one month
Excerpt: A 70 kg patient is apparently in good health. They present complaining of a loss of sexual desire and frequent erectile dysfunction since taking an executive position in their company, six weeks previously. They report that they work long hours and feels a high degree of pressure associated with their job. They are frustrated and angry that when they take time off from work they are unable to have an intimate relationship with their spouse. They report that although they are periodically interested in initiating sexual relations, on most occasions they are unable to maintain a high level of interest sufficiently long to initiate or to adequately respond to their spouse's initiating sexual activity. […] They develop a semi-rigid erection at the beginning of sexual activity but detumescence occurs when they attempt penetration. They report that they have few erotic fantasies. They have not masturbated for the past several months. They attribute this to a lack of motivation and interest. […] (5R)-(methylamino)-5,6-dihydro-4H-imidazo[4,5,1-ij]quinolin-2(1H)-one (Z)-2-butenedioate (1:1), 3 mg/dose, and sildenafil (VIAGRA Tablets), 50 mg/dose, are both prescribed. Each is to be taken orally about 0.5 hr before the patient intends to engage in sexual activity. The patient is instructed that they may use the drug combination on a daily basis, if this is the intended frequency of sexual activity. The patient is examined after one month. They report that they take the drug combination 2-3 times per week. […] The patient is advised to continue taking the (5R)-(methylamino)-5,6-dihydro-4H-imidazo[4,5,1-ij]quinolin-2(1H)-one (Z)-2-butenedioate (1:1) for another six months as they adapt to the situational stress associated with their new job. After this time they are advised to stop taking the drug for a period of two weeks to determine whether their sexual motivation and desire have returned to the level they enjoyed prior to the change in jobs.

| SMILES | orgasm during sexual intercourse [1] | treatment effect (sexual relationship) [1] | ejaculation [2] | maintenance of erection [2] | treatment effect (quality of sexual relationship) [2] | ejaculation during vaginal intercourse [3] | treatment effect (quality of sexual relationship) [3] | maintenance of erection [4] | sexual fantasies [4] | sexual motivation [4] | treatment effect (sexual relationship) [4] | melting point [°C] |
| --- | --- | --- | --- | --- | --- | --- | --- | --- | --- | --- | --- | --- |
| CN[C@@H]1Cc2cccc3[nH]c(=O)n(c23)C1.O=C(O)/C=C\C(=O)O [(5R)-(methylamino)-5,6-dihydro-4H-imidazo[4,5,1-ij]quinolin-2(1H)-one (Z)-2-butenedioate (1:1)] | has an orgasm during sexual intercourse on most occasions | enjoys an improved sexual relationship with their partner | usually experiences intra-vaginal ejaculation | maintains an erection for a satisfactory period after vaginal penetration in almost every attempt at intercourse | markedly improved | ejaculates during vaginal intercourse on all occasions | markedly improved | no difficulty maintaining an erection to completion of sexual intercourse | readily has sexual fantasies that are sustained during sexual intercourse | feels motivated to initiate sexual activity | enjoys an improved sexual relationship with their partner |  |
| CN[C@@H]1Cc2cccc3[nH]c(=S)n(c23)C1 [(5R)-5-(Methylamino)-5,6-dihydro-4H-imidazo[4,5,1-ij]quinoline-2(1H)-thione] |  | same positive treatment effect |  |  | same positive treatment effect |  | same positive treatment effect |  |  |  | same positive treatment effect | 210 to 213 |
